The values that follow are results of earlier work, collected in publication PMC7395068, “The evolution of strategies to minimise the risk of human drug-induced liver injury (DILI) in drug discovery and development” (Archives of Toxicology, 2020).

Read-outs that look alike come from different tables or passages of the source.

The conditions of data set [1]: cited from earlier work.
The subject of data set [2] is rBsep. The arrangement: method as in Dawson 2012. The conditions noted are these: In vitro Assay; ref Dawson 2012; cited from earlier work.
The conditions of data set [3]: ref Chen 2016; cited from earlier work.
Data set [4] deals with HepG2 cells, primary human hepatocytes. Conditions: In vitro Assay; ref Garside 2014; cited from earlier work.
Data set [5] concerns THLE-Null and THLE-3A4 cells. Conditions: In vitro Assay; ref Gustafsson 2014; cited from earlier work.
In data set [6] the test system is HepG2 cells. Conditions: In vitro Assay; ref O'Brien 2006; cited from earlier work.
For a further data set, the system named is PHH spheroids. Conditions: In vitro Assay; ref Vorrink 2018; cited from earlier work.
Another data set relates to human hepatocytes. The conditions noted are these: In vitro Assay; ref Xu 2008; cited from earlier work.
Data set [7] has as its system rBsep. The conditions noted are these: In vitro Assay; ref Dawson 2012; cited from earlier work.
In data set [8] the test system is THLE or HepG2 cells, isolated mitochondria, BSEP. Conditions: In vitro Assay; ref Aleo 2019; cited from earlier work.
A further data set has as its system Upcyte human hepatocytes. Conditions: In vitro Assay; ref Tolosa 2019; cited from earlier work.
Data set [9] deals with HepG2 cells. The conditions noted are these: In vitro Assay; ref Persson 2013; cited from earlier work.
Data set [10] has as its system HepG2 cells. Conditions: cited from earlier work.

Turning to `Cc1onc(-c2c(Cl)cccc2Cl)c1C(=O)N[C@@H]1C(=O)N2[C@@H]1SC(C)(C)[C@@H]2C(=O)O` [dicloxacillin], the “In vivo DILI” value in data set [1] (ref Dawson 2012) is “+VE”. Further, in data set [1] (ref Garside 2014), the “In vivo DILI” value was “+VE”. Also, in data set [1] (ref Gustafsson 2014), the “In vivo DILI” value was “+VE”. Moreover, in the data set with rBsep [2], the “Inhibition of rBsep cutoff<1& cmax u>.2” value is on record as “-VE” and the “Inhibition of rBsep cutoff<3” value was “+VE”. For the same compound, in data set [3], the “DILI +VE (5-8), DILI -VE (-4)” value is recorded as “+VE” and the DILI severity category result is on record as “vLess-DILI-Concern”. For the same compound, in data set [4], the “Cluster 1-6 +VE Assay” value was “+VE”. For the same compound, in [5], the THLE-Null result is recorded as “-VE” and the THLE-Null/3A4 entry is “-VE”.

On to `CC(C)NCC(O)c1ccc(O)c(O)c1` (stereo not drawn) [isoproterenol], for which the “Structural based (HCI)” value with HepG2 cells [6], with human hepatocytes and with HepG2 cells [9] was “-VE” in each case. In addition, the “hLiMTs ATP <20 x Cmax” value with PHH spheroids was “-VE”. For the same compound, the “In vivo DILI” value in [1] (ref Aleo 2019), in data set [1] (ref Dawson 2012), in data set [1] (ref Garside 2014), in data set [1] (ref Gustafsson 2014), in data set [1] (ref O'Brien 2006) and in data set [1] (ref Persson 2013) was “-VE” each time. Moreover, the “In vivo DILI” value in data set [1] (ref Tolosa 2019), in data set [1] (ref Vorrink 2018) and in data set [1] (ref Xu 2008) was “-VE” in each case. In data set [3], the “DILI +VE (5-8), DILI -VE (-4)” value is “-VE”. Further, the DILI severity category entry in data set [3] is given as “vNo-DILI-Concern”. For the same compound, the “Cluster 1-6 +VE Assay” value in data set [4] was “+VE”. Besides, in the data set on rBsep [7], the “Inhibition of rBsep cutoff<1& cmax u>.2” value is on record as “-VE”. The “Inhibition of rBsep cutoff<3” value in the data set on rBsep [7] was “-VE”. Also, the “Partition Hybrid HRM Score” value in data set [8] is reported as “-VE”. The “Ro2 Hybrid HRM Score” value in [8] is “-VE”. The THLE-Null entry in data set [5] is recorded as “-VE”. Further, the THLE-Null/3A4 result in data set [5] is on record as “-VE”. The “Upcytes multi donor assay 14day data” value with Upcyte human hepatocytes is recorded as “-VE”. Besides, the Cluser analysis entry in the data set with HepG2 cells [9] is on record as “-VE”.

Turning to `CN1CCC(=C2c3ccccc3CC(=O)c3sccc32)CC1` [ketotifen, reference compound], the “Structural based (HCI)” value is “-VE” in the data set on HepG2 cells [6]; “+VE” in the data set on HepG2 cells [10] (In vitro Assay, ref Tolosa 2012); “-VE” in the data set with human hepatocytes. Besides, the “In vivo DILI” value in [1] (ref Dawson 2012) was “-VE”; in data set [1] (ref Garside 2014) it was “+VE”; in data set [1] (ref Gustafsson 2014) it was “+VE”; in data set [1] (ref O'Brien 2006), “-VE”; in [1] (ref Tolosa 2012), “-VE”; in [1] (ref Tolosa 2019) it was “+VE”. The “In vivo DILI” value in data set [1] (ref Xu 2008) was “-VE”. Besides, in the data set with HepG2 cells [10] (Structural based (HCI), HepG2, ref Tolosa et al. 2012), the “DILI in vitro assay prediction, Tolosa (2012)” value is “false-positive”. The “Cluster 1-6 +VE Assay” value in data set [4] was “+VE”. The “Inhibition of rBsep cutoff<1& cmax u>.2” value in the data set with rBsep [7] is recorded as “-VE”. The “Inhibition of rBsep cutoff<3” value in the data set on rBsep [7] is “-VE”. In addition, in data set [5], the THLE-Null result is “-VE”. Moreover, the THLE-Null/3A4 entry in data set [5] is on record as “-VE”. Moreover, the “Upcytes multi donor assay 14day data” value in the data set with Upcyte human hepatocytes is recorded as “+VE”.
